In patent publication US20240254089A1, “MODULATORS OF MAS-RELATED G-PROTEIN RECEPTOR X4 AND RELATED PRODUCTS AND METHODS” (ESCIENT PHARMACEUTICALS, INC., priority 2020, published 2024):
Where two headings read alike, the source gives them in different places.

Biological target: T1, human MRGPR X4 (Homo sapiens, UniProt Q96LA9)
T1 construct: expressed in transfected cells
Test: MRGPR X4 antagonist activity, IP-One Gq HTRF assay in stably transfected HEK cells
Assay type: cell-based
In short: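 IC50 comes from HTRF IP-1 accumulation in stably transfected HEK cells expressing human MRGPR X4. Compounds (10 uM top, 1:3 serial, 10 points) were co-incubated with 10 μM bilirubin, 20 μM deoxycholic acid or 100 μM conjugated bilirubin in LiCl-containing buffer, pH 8, for 1 h at 37 °C plus 30 min at room temperature.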

[1] = versus 20 μM deoxycholic acid agonist, HEK cells expressing human MRGPR X4, read-out: MRGPRX4 Antagonist Activity

T1 sequence (Q96LA9 whole entry): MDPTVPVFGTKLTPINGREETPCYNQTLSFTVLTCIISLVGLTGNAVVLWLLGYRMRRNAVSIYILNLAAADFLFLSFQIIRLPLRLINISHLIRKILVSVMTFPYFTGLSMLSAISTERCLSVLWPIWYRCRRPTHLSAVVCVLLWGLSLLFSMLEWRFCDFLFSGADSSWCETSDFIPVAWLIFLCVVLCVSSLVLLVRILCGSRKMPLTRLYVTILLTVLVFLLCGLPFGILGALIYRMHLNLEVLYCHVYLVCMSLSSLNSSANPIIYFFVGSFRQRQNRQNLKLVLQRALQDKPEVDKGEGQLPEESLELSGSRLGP

SMILES	IC50 [nM]	IC50 [1] [nM]
Cc1ccc(Cn2cc(C(=O)NCCc3c[nH]c4ccccc34)c3ccccc32)cc1 [Compound 169]	100 to 500	–
O=C(NCc1cnn2ccccc12)c1nn(Cc2ccc(Cl)cc2)c2ccccc12 [Compound 388]	> 2500	–
O=C(Nc1cccnc1)c1nn(Cc2ccc(Cl)cc2)c2ccccc12 [Compound 130]	> 2500	–
O=C(NCCc1nnc2ccccn12)c1nn(CCCOc2ccc(Cl)cc2)c2ccccc12 [Compound 470]	–	> 2500
O=C(NCCn1cc(-c2cncnc2)nn1)c1nn(Cc2ccc(Cl)cc2)c2ccccc12 [Compound 145]	501 to 1000	–
Cc1[nH]c2ccccc2c1CCNC(=O)c1nn(Cc2ccc(Cl)cc2)c2ccccc12 [Compound 340]	> 2500	–
O=C(CCn1nc(C(=O)NCCc2nnc3ccccn23)c2ccccc21)c1ccc(F)cc1 [Compound 443]	–	> 2500
Cn1ncc2cc(Cn3nc(C(=O)NCCc4nnc5ccccn45)c4ccccc43)ccc21 [Compound 452]	501 to 1000	–
Cc1ccc(C(=O)Cn2nc(C(=O)NCCc3nnc4ccccn34)c3ccccc32)c(C)c1 [Compound 483]	501 to 1000	–
Cc1ccc(Cn2nc(C(=O)NCCc3nnc4n3CCC4)c3ccccc32)cc1 [Compound 59]	100 to 500	–
O=C(NCCc1nnc2ccccn12)c1nn(Cn2nnc3ccccc32)c2ccccc12 [Compound 465]	100 to 500	–
CC(c1ccc(Cl)cc1)n1nc(C(=O)NCCc2nc3c(s2)CCCC3)c2ccccc21 (centres unmarked) [Compound 118]	1000 to 2500	–
O=C(NCCc1nnc2ccccn12)c1nn(CCc2ccc(F)cc2F)c2ccccc12 [Compound 471]	–	> 2500
COc1cccc(F)c1CNC(=O)c1nn(Cc2ccc(Cl)cc2)c2ccccc12 [Compound 335]	> 2500	–
O=C(NCCc1cccc(OC(F)(F)F)c1)c1cn(Cc2ccc(Cl)cc2)c2ccccc12 [Compound 200]	1000 to 2500	–
O=C(NCCc1nc2c(s1)CCCC2)c1nn(Cc2ccc(Cl)cc2F)c2ccccc12 [Compound 131]	100 to 500	–
Cn1nccc1Cn1nc(C(=O)NCCc2nnc3ccccn23)c2ccccc21 [Compound 515]	> 2500	–
Cn1c(Cn2nc(C(=O)NCCc3nnc4ccccn34)c3ccccc32)nc2ccccc21 [Compound 544]	100 to 500	–
O=C(NCCc1nnc2ccccn12)c1nn(Cc2ccc(Cl)cc2)c2cc(C(F)(F)F)ccc12 [Compound 564]	< 100	–
O=C(NCCc1nnc2ccccn12)c1nn(Cc2ccc(Cl)cc2)c2cccc(Br)c12 [Compound 566]	100 to 500	–
COc1ccc2nc(Cn3nc(C(=O)NCCc4nnc5ccccn45)c4ccccc43)n(C)c2c1 [Compound 567]	1000 to 2500	–
Cc1nc(Cn2nc(C(=O)NCCc3nnc4ccccn34)c3ccccc32)cs1 [Compound 439]	100 to 500	–
O=C(NCCc1nnc2ccccn12)c1nn(Cc2ccc(Cl)cc2)c2cc(Cl)ccc12 [Compound 562]	< 100	–
O=C(NCCc1cccnc1)c1nn(Cc2ccc(Cl)c(F)c2)c2ccccc12 [Compound 17]	< 100	–
Cc1[nH]c2ccc(O)cc2c1CCNC(=O)c1nn(Cc2ccc(Cl)cc2)c2ccccc12 [Compound 416]	< 100	–
O=C(NCCc1c[nH]c2ccccc12)c1nn(Cc2ccc(OC(F)F)cc2)c2ccccc12 [Compound 71]	501 to 1000	–
Cc1ccc(Cn2cc(C(=O)NCCc3nc4c(s3)CCCC4)c3ccccc32)cc1 [Compound 165]	100 to 500	–

SMILES	IC50 [nM]	IC50 [1] [nM]
O=C(NCCCc1ccncc1)c1nn(Cc2ccc(Cl)cc2)c2ccccc12 [Compound 355]	> 2500	–
O=C(NS(=O)(=O)Cc1ccccn1)c1nn(Cc2ccc(Cl)cc2)c2ccccc12 [Compound 299]	–	> 2500
N#Cc1ccccc1Cn1cc(C(=O)NCCc2ccc(Cl)c(F)c2)c2ccccc21 [Compound 235]	> 2500	–
O=C(NCCc1ccncc1)c1cn(Cc2cccc(F)c2)c2ccccc12 [Compound 219]	1000 to 2500	–
CC(=O)c1cccc(Cn2cc(C(=O)NCCc3cccnc3)c3ccccc32)c1 [Compound 232]	> 2500	–
CC(=O)Nc1ccc(CNC(=O)c2nn(Cc3ccc(Cl)cc3)c3ccccc23)cc1 [Compound 374]	> 2500	–
N#Cc1ccc(Cn2cc(C(=O)NCCc3ccc(Cl)c(F)c3)c3ccccc32)cc1 [Compound 188]	501 to 1000	–
COc1cccc(Cn2cc(C(=O)NCCc3cccnc3)c3ccccc32)c1 [Compound 211]	1000 to 2500	–
O=C(NCCc1cccs1)c1nn(Cc2ccc(Cl)cc2)c2ccccc12 [Compound 350]	1000 to 2500	–
O=C(NCCc1nnc2ccccn12)c1nn(Cc2ccc(Cl)c(F)c2)c2ccccc12 [Compound 524]	< 100	–
Cc1cccn2c(CCNC(=O)c3nn(Cc4ccc(Cl)cc4)c4ccccc34)nnc12 [Compound 4]	< 100	–
O=C(NCCc1cccc(O)c1)c1nn(Cc2ccc(Cl)cc2)c2ccccc12 [Compound 9]	< 100	–
O=C(NCCc1nnc2ccccn12)c1nn(Cc2cccc3ccsc23)c2ccccc12 [Compound 548]	501 to 1000	–
COc1ccc(CCNC(=O)c2nn(Cc3ccc(Cl)cc3)c3ccccc23)nc1 [Compound 61]	100 to 500	–
CS(=O)(=O)c1ccccc1Cn1nc(C(=O)NCCc2nnc3ccccn23)c2ccccc21 [Compound 435]	–	> 2500
O=C(NCc1cncnc1)c1nn(Cc2ccc(Cl)cc2)c2ccccc12 [Compound 375]	> 2500	–
O=C(NCCc1nnc2ccccn12)c1nn(Cc2ccc(Cl)cc2)c2ccc(I)cc12 [Compound 552]	< 100	–
O=C(NCCc1cccc(F)c1)c1cn(Cc2cccc(F)c2)c2ccccc12 [Compound 199]	501 to 1000	–
COC1CN(CCn2cc(C(=O)NCCc3ccccn3)c3ccccc32)C1 [Compound 228]	> 2500	–
CC(C)(CNC(=O)c1cn(Cc2ccc(Cl)cc2)c2ccccc12)c1cccnc1 [Compound 233]	> 2500	–
O=C(NCCc1nnc2ccccn12)c1nn(Cc2ccc3cc[nH]c3c2)c2ccccc12 [Compound 556]	< 100	–
N#Cc1ccc(CNC(=O)c2nn(Cc3ccc(Cl)cc3)c3ccccc23)nc1 [Compound 404]	1000 to 2500	–
Cc1ccc(Cn2nc(C(=O)NCCc3noc(C(C)C)n3)c3ccccc32)cc1 [Compound 85]	501 to 1000	–
Cc1ccc(CCNC(=O)c2cn(Cc3ccc(Cl)cc3)c3ccccc23)c(C)n1 [Compound 156]	100 to 500	–
O=C(CS(=O)(=O)c1cn(Cc2ccc(Cl)cc2)c2ccccc12)Nc1ccccc1Cl [Compound 244]	–	501 to 1000
Cc1cccc(S(=O)(=O)NC(=O)c2nn(Cc3ccc(OC(F)F)cc3)c3ccccc23)c1F [Compound 278]	–	1000 to 2500
O=C(NS(=O)(=O)c1ccccn1)c1nn(Cc2ccc(Cl)cc2)c2ccccc12 [Compound 291]	–	1000 to 2500

SMILES	IC50 [nM]	IC50 [1] [nM]
CS(=O)(=O)c1cccc(Cn2nc(C(=O)NCCc3nnc4ccccn34)c3ccccc32)c1 [Compound 510]	–	> 2500
Cc1cc(C)nc(CCNC(=O)c2nn(Cc3ccc(Cl)cc3)c3ccccc23)n1 [Compound 119]	1000 to 2500	–
O=C(NCCc1ccncn1)c1nn(Cc2ccc(Cl)cc2)c2ccccc12 [Compound 121]	1000 to 2500	–
COc1ccc(CCNC(=O)c2nn(Cc3ccc(Cl)cc3)c3ccccc23)cn1 [Compound 364]	100 to 500	–
O=C(NS(=O)(=O)c1cccnc1)c1nn(Cc2ccc(Cl)cc2)c2ccccc12 [Compound 304]	–	> 2500
Cc1ccc(Cn2cc(C(=O)NCCc3cccnc3)c3ccccc32)cc1 [Compound 160]	100 to 500	–
CC(C)c1noc(Cn2nc(C(=O)NCCc3nnc4ccccn34)c3ccccc32)n1 [Compound 437]	100 to 500	–
Cn1c(Cn2nc(C(=O)NCCc3nnc4ccccn34)c3ccccc32)nc2cc(F)ccc21 [Compound 574]	100 to 500	–
Cc1ccc(Cn2nc(C(=O)NCCc3cccnc3)c3c(C#N)cccc32)cc1 [Compound 67]	100 to 500	–
O=C(NCCc1nnc2ccccn12)c1nn(Cc2ccc(Cl)cc2)c2ccc(Br)cc12 [Compound 529]	< 100	–
Cc1ccc(CCNC(=O)c2nn(Cc3ccc(C(F)(F)F)cc3)c3ccccc23)cn1 [Compound 49]	100 to 500	–
N#Cc1cccc(Cn2nc(C(=O)NCCc3nnc4ccccn34)c3ccccc32)c1 [Compound 446]	1000 to 2500	–
CC(C)(C)c1ccc(Cn2nc(C(=O)NCCc3nnc4n3CCCCC4)c3ccccc32)cc1 [Compound 50]	100 to 500	–
O=C(NCCc1ccc(Cl)c(F)c1)c1cn(Cc2ccc(C(F)(F)F)cc2)c2ccccc12 [Compound 209]	1000 to 2500	–
O=C(CNC(=O)c1nn(Cc2ccc(Cl)cc2)c2ccccc12)c1cccnc1 [Compound 132]	100 to 500	–
N#Cc1ccc(S(=O)(=O)NC(=O)c2nn(Cc3cccc(F)c3)c3ccccc23)cc1Cl [Compound 301]	–	> 2500
O=C(NCCc1nnc2ccccn12)c1nn(Cc2ccc3c(c2)CCC3)c2ccc(F)cc12 [Compound 537]	< 100	–
O=C(NCCc1nnc2ccccn12)c1nn(Cc2ccc(-c3ccccc3)cc2)c2ccccc12 [Compound 410]	–	> 2500
O=C(NCCc1nnc2ccccn12)c1nn(Cc2ccc(Cl)cc2)c2cc(F)ccc12 [Compound 3]	< 100	–
O=C(NS(=O)(=O)c1ccc(OC(F)(F)F)cc1)c1nn(Cc2ccc(OC(F)F)cc2)c2ccccc12 [Compound 296]	–	> 2500
O=C(NCCc1ccccn1)c1cn(CCc2ccc(Cl)cc2)c2ccccc12 [Compound 217]	–	1000 to 2500
Cc1cccc(S(=O)(=O)NC(=O)c2nn(Cc3ccccc3C#N)c3ccccc23)c1 [Compound 260]	–	501 to 1000
Cc1cccc(S(=O)(=O)NC(=O)c2nn(Cc3ccc(OC(F)F)cc3)c3ccccc23)c1C [Compound 282]	–	1000 to 2500
O=C(NCCc1nnc2ccccn12)c1nn(CC2CCC(F)(F)CC2)c2ccccc12 [Compound 489]	501 to 1000	–
O=C(NCCc1cccnc1)c1cn(Cc2ccccc2Cl)c2ccccc12 [Compound 183]	501 to 1000	–
COc1ccccc1NC(=O)CS(=O)(=O)c1cn(Cc2ccc(Cl)cc2)c2ccccc12 [Compound 246]	–	1000 to 2500
